# Target: T1, recombinant human NK3 receptor (Homo sapiens, UniProt P29371)
# T1 construct: expressed in transfected cells; host or cells: HEK293 cells (transient expression), membranes
# T1 sequence (P29371 1-465): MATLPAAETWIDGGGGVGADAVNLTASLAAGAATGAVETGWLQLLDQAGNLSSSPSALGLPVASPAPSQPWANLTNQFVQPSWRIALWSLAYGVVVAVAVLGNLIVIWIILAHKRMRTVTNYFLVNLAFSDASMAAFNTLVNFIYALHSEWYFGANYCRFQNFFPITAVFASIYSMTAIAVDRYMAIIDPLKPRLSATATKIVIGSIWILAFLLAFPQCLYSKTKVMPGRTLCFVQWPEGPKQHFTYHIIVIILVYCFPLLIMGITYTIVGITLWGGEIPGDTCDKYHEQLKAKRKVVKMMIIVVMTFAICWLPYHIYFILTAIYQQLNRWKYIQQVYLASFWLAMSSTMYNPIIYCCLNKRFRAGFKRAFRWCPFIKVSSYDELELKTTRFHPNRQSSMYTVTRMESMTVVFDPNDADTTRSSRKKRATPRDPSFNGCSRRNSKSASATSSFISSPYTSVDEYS
# Assay: [3H]SR142801 competition binding assay
# Conditions: membranes from HEK293 cells transiently expressing recombinant human NK3 receptor; [3H]SR142801 radioligand; 75 min at RT; Ki by Cheng-Prussoff; read-out: Data Ki (hNK-3 receptor affinity)
# Experimental: [^3H]SR142801 Competition Binding Assay
# hNK3 receptor binding experiment were performed using [^3H]SR142801 (Catalog No. TRK1035, specific activity: 74.0 Ci/mmol, Amersham, GE Healthcare UK limited, Buckinghamshire, UK) and membrane isolated from HEK293 cells transiently expressing recombinant human NK3 receptor. After thawing, the membrane homogenates were centrifuged at 48,000×g for 10 min at 4° C., the pellets were resuspended in the 50 mM Tris-HCl, 4 mM MnCl2, 1 μM phosphoramidon, 0.1% BSA binding buffer at pH 7.4 to a final assay concentration of 5 μg protein/well. […] At the end of the incubation, membranes were filtered onto unitfilter (96-well white microplate with bonded GF/C filter preincubated 1 h in 0.3% PEI+0.3% BSA, Packard BioScience, Meriden, Conn.) with a Filtermate 196 harvester (Packard BioScience) and washed 4 times with ice-cold 50 mM Tris-HCl, pH 7.4 buffer. Nonspecific binding was measured in the presence of 10 μM SB222200 for both radioligands. The radioactivity on the filter was counted (5 min) on a Packard Top-count microplate scintillation counter with quenching correction after addition of 45 μl of microscint 40 (Can berra Packard S. A., Zurich, Switzerland) and shaking for 1 h. Inhibition curves were fitted according to the Hill equation: y=100/(1+(x/IC50)^nH), where nH=slope factor using Excel-fit 4 software (Microsoft). IC50 values were derived from the inhibition curve and the affinity constant (Ki) values were calculated using the Cheng-Prussoff equation Ki═IC50/(1+[L]/KD) where [L] is the concentration of radioligand and KD is its dissociation constant at the receptor, derived from the saturation isotherm. All experiments were performed in duplicate and the mean±standard error (SEM) of the individual Ki values was calculated.
row,Ki,SMILES
1,1.1 nM,"CC[C@H](NC(=O)C1(c2ccccc2)CCN(C(=O)c2ccc(-c3nc(C)no3)cc2)CC1)c1ccccc1 [Example 83, 1-[4-(3-Methyl-[1,2,4]oxa-diazol-5-yl)-benzoyl]-4-phenyl-piperidine 4-carboxylic acid ((S)-1-phenyl-propyl)-amide]"
2,2.8 nM,"CC[C@H](NC(=O)C1(c2ccccc2)CCN(C(=O)c2ccc(N3CCS(=O)(=O)CC3)cc2)CC1)c1ccccc1 [Example 84, 1-[4-(1,1-Dioxo-1λ6-thiomor-pholin-4-yl)-benzoyl]-4-phenyl-piperidine-4-carboxylic acid ((S)-1-phenyl-propyl)-amide]"
3,2.7 nM,"CC[C@H](NC(=O)C1(c2ccccc2)CCN(C(=O)c2ccc(-c3ccc(F)cc3)cc2)CC1)c1ccccc1 [Example 85, 1-(4′-Fluoro-biphenyl-4-carbonyl)-4-phenyl-piperidine-4-carboxylic acid ((S)-1-phenyl-propyl)-amide]"
4,6.2 nM,"Cc1noc(-c2ccc(C(=O)N3CCC(C(=O)N[C@@H](C)c4ccc(F)cc4)(c4ccc(F)cc4)CC3)cc2)n1 [Example 88, 4-(4-Fluoro-phenyl)-1-{4-(3-methyl-[1,2,4]oxa-diazol-5-yl)-benzoyl] piperidine-4-carboxylic acid [(S)-1-(4-fluoro-phenyl)-ethyl]-amide]"
5,18.3 nM,"C[C@H](NC(=O)C1(c2ccc(F)cc2)CCN(C(=O)c2ccc(-c3ccc(F)cc3)cc2)CC1)c1ccc(F)cc1 [Example 89, 1-(4′-Fluoro-biphenyl-4-carbonyl)-4-(4-fluoro-piperidine-phenyl)-4-carboxylic acid [(S)-1-(4-fluoro-phenyl)-ethyl]-amide]"
6,2.6 nM,Cc1noc(-c2ccc(C(=O)N3CCC(C(=O)N[C@@H](C)C4CCCCC4)(c4ccc(F)cc4)CC3)cc2)n1 [Example 90]
7,7.6 nM,"C[C@H](NC(=O)C1(c2ccc(F)cc2)CCN(C(=O)c2ccc(N3CCS(=O)(=O)CC3)cc2)CC1)C1CCCCC1 [Example 91, 1-[4-(1,1-Dioxo-1λ6 thiomor-pholin-4-yl)-benzoyl]-4-(4-fluoro-phenyl)-piperidine-4-carboxylic acid ((S)-1-cyclohexyl-ethyl)-amide]"
8,5.1 nM,"C[C@H](NC(=O)C1(c2ccc(F)cc2)CCN(C(=O)c2ccc(-c3ccc(F)cc3)cc2)CC1)C1CCCCC1 [Example 92, 1-(4′-Fluoro-biphenyl-4-carbonyl)-4-(4-fluoro-phenyl)-piperidine-4-carboxylic acid ((S)-1-cyclohexyl-ethyl)-amide]"
9,33.6 nM,"C[C@H](NC(=O)C1(c2ccccc2)CCN(C(=O)c2ccc(N3CCS(=O)(=O)CC3)nc2)CC1)c1ccccc1 [Example 98, 1-[6-(1,1-Dioxo-1λ6-thiomor-pholin-4-yl)-pyridine-3-carbonyl]-4-phenyl-piperidine-4-carboxylic acid ((S)-1-phenyl-ethyl)-amide]"
10,17.4 nM,"C[C@H](NC(=O)C1(c2ccccc2)CCN(C(=O)c2ccc(N3CCS(=O)(=O)CC3)cc2)CC1)c1ccc(Cl)cc1 [Example 101, 1-[4-(1,1-Dioxo-1λ6-thiomor-pholin-4-yl)-benzoyl]-4-phenyl-pipendine-4-carboxylic acid [(S)-1-(4-chloro-phenyl)-ethyl]-amide]"
11,17.2 nM,"C[C@H](NC(=O)C1(c2ccccc2)CCN(C(=O)c2ccc(-c3ccc(F)cc3)cc2)CC1)c1ccc(Cl)cc1 [Example 102, 1-(4′-Fluoro-biphenyl-4-carbonyl)-4-phenyl-piperidine-4-carboxylic acid [(S)-1-(4-chloro-phenyl)-ethyl]-amide]"
12,11.2 nM,"Cc1noc(-c2ccc(C(=O)N3CCC(C(=O)N[C@@H](C)c4ccc(Cl)cc4)(c4ccccc4)CC3)cc2)n1 [Example 104, 1-[4-(3-Methyl-[1,2,4]oxa-diazol-5-yl)-benzoyl]-4-phenyl-piperidine-4-carboxylic acid [(S)-1-(4-chloro-phenyl)-ethyl]-amide]"
13,5.2 nM,"Cc1noc(-c2ccc(C(=O)N3CCC(C(=O)N(C)Cc4ccc(F)cc4)(c4ccccc4)CC3)cc2)n1 [Example 105, 1-[4-(3-Methyl-[1,2,4]oxa-diazol-5-yl)-benzoyl]-4-phenyl-piperidine-4-carboxylic acid (4-fluoro-benzyl)-methyl-amide]"
14,56.3 nM,"CN(Cc1ccc(F)cc1)C(=O)C1(c2ccccc2)CCN(C(=O)c2ccc(N3CCS(=O)(=O)CC3)cc2)CC1 [Example 106, 1-[4-(1,1-Dioxo-1λ6-thiomor-pholin-4-yl)-benzoyl]-4-phenyl-piperidine-4-carboxylic acid (4-fluoro-benzyl)-methyl-amide]"
15,82 nM,"Cc1noc(-c2ccc(C(=O)N3CCC(C(=O)N[C@@H](C)c4ccc(F)cc4)(C4CCCCC4)CC3)cc2)n1 [Example 109, 4-Cyclohexyl-1-[4-(3-methyl-[1,2,4]oxa-diazol-5-yl)-benzoyl]-piperidine-4-carboxylic acid [(S)-1-(4-fluoro-phenyl)-ethyl]-amide]"
16,52.2 nM,"C[C@H](NC(=O)C1(C2CCCC2)CCN(C(=O)c2ccc(-c3ccc(F)cc3)cc2)CC1)c1ccc(F)cc1 [Example 110, 4- Cyclopentyl-1-(4′-fluoro-biphenyl-4-carbonyl)-piperidine-4-carboxylic acid [(S)-1-(4-fluoro-phenyl)-ethyl]-amide]"
17,39.8 nM,"Cc1noc(-c2ccc(C(=O)N3CCC(C(=O)N[C@@H](C)c4ccc(F)cc4)(C4CCCC4)CC3)cc2)n1 [Example 111, 4- Cyclopentyl-1-[4-(3-methyl-[1,2,4]oxa-diazol-5-yl)-benzoyl]-piperidine-4-carboxylic acid [(S)-1-(4-fluoro-phenyl)-ethyl]-amide]"
18,82.8 nM,"Cc1nc(-c2ccc(C(=O)N3CCC(C(=O)N[C@@H](C)c4ccc(F)cc4)(C4CCCC4)CC3)cc2)no1 [Example 112, 4- Cyclopentyl-1-[4-(5-methyl-[1,2,4]oxa-diazol-3-yl)-benzoyl]-piperidine-4-carboxylic acid [(S)-1-(4-fluoro-phenyl)-ethyl]-amide]"
19,35.6 nM,"C=C(C)CC1(C(=O)N[C@@H](C)c2ccc(F)cc2)CCN(C(=O)c2ccc(-c3ccc(F)cc3)cc2)CC1 [Example 113, 1-(4′-Fluoro-biphenyl-4-carbonyl)-4-(2-methyl-allyl)-piperidine-4-carboxylic acid [(S)-1-(4-fluoro-phenyl)-ethyl]-amide]"
20,90.5 nM,"Cc1noc(-c2ccc(C(=O)N3CCC(C(=O)N[C@@H](C)c4ccc(C(F)(F)F)cc4)(c4ccccc4)CC3)cc2)n1 [Example 114, 1-[4-(3-Methyl-[1,2,4]oxadiazol-5-yl)-benzoyl]-4-phenyl-piperidine-4-carboxylic acid [(S)-1-(4-trifluoromethyl-phenyl)-ethyl]-amide]"
21,22.6 nM,"Cc1noc(-c2ccc(C(=O)N3CCC(C(=O)NC(C)(C)c4ccccc4)(c4ccccc4)CC3)cc2)n1 [Example 116, 1-[4-(3-Methyl-[1,2,4]oxadiazol-5-yl)-benzoyl]-4-phenyl-piperidine-4-carboxylic acid (1-methyl-1-phenyl-ethyl)-amide]"
22,25.7 nM,"CC(C)CC1(C(=O)N[C@@H](C)c2ccc(F)cc2)CCN(C(=O)c2ccc(-c3ccc(F)cc3)cc2)CC1 [Example 122, 1-(4′-Fluoro-biphenyl-4-carbonyl)-4-isobutyl-piperidine-4-carboxylic acid [(S)-1-(4-fluoro-phenyl)-ethyl]-amide]"
23,93.7 nM,"Cc1noc(-c2ccc(C(=O)N3CCC(C(=O)N[C@@H](C)c4ccc(F)cc4)(c4ccc(F)cn4)CC3)cc2)n1 [Example 126, 5-Fluoro-1′-[4-(3-methyl-[1,2,4]oxadiazol-5-yl)-benzoyl]-2′,3′,5′,6′-tetrahydro-1′H-[2,4′]bipyridinyl-4′-carboxylic acid [(S)-1-(4-fluoro-phenyl)-ethyl]-amide]"
24,12 nM,"C[C@H](NC(=O)C1(c2ccc(F)cc2)CCN(C(=O)c2ccc(-c3ccc(F)cc3)cc2)CC1)c1cccc(F)c1 [Example 129, 1-(4′-Fluoro-biphenyl-4-carbonyl)-4-(4-fluoro-phenyl)-piperidine-4-carboxylic acid [(S)-1-(3-fluoro-phenyl)-ethyl]-amide]"

# Source: patent US8324250B2 (Hoffmann-La Roche Inc., priority 2009, dated 2012)
